Marks after values point to notes of the source that are not given here.
Key:
hCB1Rs [1] = target: T1, hCB1Rs (Homo sapiens, UniProt P21554); test: cell-based; assay type: cell-based
T1 construct: host or cells: CHO-K1 (CHO-hCB1)

hCB1Rs [2] = target: T1, hCB1Rs; test: biochemical; settings: read-out: EMAX, [^35S]GTPγS binding (maximal G-protein activation)
hCB1Rs [3] = target: T1, hCB1Rs; assay type: cell-based

T1 sequence (P21554 whole entry): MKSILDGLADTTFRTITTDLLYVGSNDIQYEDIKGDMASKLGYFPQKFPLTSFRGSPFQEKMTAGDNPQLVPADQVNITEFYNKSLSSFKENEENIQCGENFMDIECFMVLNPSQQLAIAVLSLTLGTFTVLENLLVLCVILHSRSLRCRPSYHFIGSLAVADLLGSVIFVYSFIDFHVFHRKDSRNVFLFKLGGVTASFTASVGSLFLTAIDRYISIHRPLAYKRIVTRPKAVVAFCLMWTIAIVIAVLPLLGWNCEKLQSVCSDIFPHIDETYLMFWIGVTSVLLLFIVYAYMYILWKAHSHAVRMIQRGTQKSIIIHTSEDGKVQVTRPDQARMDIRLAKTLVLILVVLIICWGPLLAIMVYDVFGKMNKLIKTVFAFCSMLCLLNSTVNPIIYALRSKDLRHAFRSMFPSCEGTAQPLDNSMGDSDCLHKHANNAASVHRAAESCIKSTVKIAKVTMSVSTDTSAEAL

CCCCCCC(C)(C)c1ccc([C@@H]2C[C@H](O)CC[C@H]2CCCO)c(O)c1 [CP-55,940, reference compound]
IMAX, cAMP accumulation (maximal adenylyl cyclase inhibition) (hCB1Rs [1]): 86.7 ± 6.4^a % | Emax (hCB1Rs [2]): 64 ± 3.8% | Efficacy (Imax) of CP-55,940 to inhibit adenylyl cyclase (hCB1Rs [3]): 86.7 ± 6.4%
